Source: PubChem BioAssay (NCI)
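The compound was tested at five concentrations on cells cultured in 96-well plates, with a 48-hour exposure period. TGI denotes the concentration required for complete inhibition of growth.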

What was measured:
P388/ADR leukemia = test: NCI tumour cell line growth inhibition, 48 h
P388 leukemia = test: NCI tumour cell line growth inhibition, 48 h

NCCCNCCCCNC(=O)C(O)NC(=O)CCCCCCN=C(N)N (configuration not stated)
TGI (P388/ADR leukemia): 750 µM | TGI (P388 leukemia): 511 µM
